Read-outs that look alike come from different tables or passages of the source.

Results on 16 compounds are retold here after EP4667464A1 (Cyrus Therapeutics Inc., priority 2023, dated 2024).

Test [1] deals with lung cancer cell line H358 having the KRAS G12S variant. The test can be described thus: SynergyScreen combination efficacy (ATPlite 1Step cell viability). As to conditions: difference between Synergy 1 and cell death rate of Ex. 1-2 alone. (Cellular ATP, detected with luciferase, serves as a proxy for viable cell number.)
Method: In order to measure cell viability, each well was treated with 24 µL of ATPlite 1Step™ (PerkinElmer) solution, then mixed for 2 minutes, and reacted by blocking light for 5 minutes, and then the luminescence signal was measured using an Envision multilabel reader (PerkinElmer).
Test [2] relates to lung cancer cell line NCI-H358 having the KRAS G12C variant. The test can be described thus: Cancer cell growth inhibition, 3D spheroids (CellTiter-Glo 3D). The test is classed as cell-based. Particulars: read-out: H358 cell viability. The method, boiled down: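 NCI-H358 (KRAS G12C) spheroids lysed with CellTiter-Glo 3D for 30 min with shaking after 10 min at room temperature. Growth in compound-treated wells expressed relative to untreated wells set to 100%.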

Test [3] concerns the target T1, SOS1 (Homo sapiens, UniProt Q07889).
T1 construct: HIS-SOS1cat (160 nM; Cytoskeleton, US); His (N); purchased Cytoskeleton
T1 sequence (Q07889 564-1049 limits assumed): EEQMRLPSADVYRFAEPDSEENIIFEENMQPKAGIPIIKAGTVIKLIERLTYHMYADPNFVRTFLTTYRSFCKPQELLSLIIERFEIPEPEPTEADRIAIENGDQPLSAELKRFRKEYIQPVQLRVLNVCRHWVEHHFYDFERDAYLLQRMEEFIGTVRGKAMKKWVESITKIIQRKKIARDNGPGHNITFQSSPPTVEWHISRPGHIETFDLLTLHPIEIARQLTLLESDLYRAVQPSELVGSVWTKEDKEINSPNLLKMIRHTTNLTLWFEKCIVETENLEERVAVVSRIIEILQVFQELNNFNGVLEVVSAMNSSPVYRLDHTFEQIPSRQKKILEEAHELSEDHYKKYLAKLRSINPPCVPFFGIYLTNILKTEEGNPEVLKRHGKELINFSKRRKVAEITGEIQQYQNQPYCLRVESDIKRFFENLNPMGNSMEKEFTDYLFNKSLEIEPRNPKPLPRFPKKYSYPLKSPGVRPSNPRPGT
The test can be described thus: SOS-catalyzed nucleotide exchange assay (HTRF, SOS1-mediated GTP loading of KRAS G12D). The format is biochemical. Background: TR-FRET usually uses a lanthanide donor and a delayed reading to cut background.

Test [4] addresses T2, KRAS G12C::SOS1 (Homo sapiens, UniProt Q07889).
T2 construct: purchased CISBIO 64KRASG12PEH
T2 sequence (Q07889 1-1333): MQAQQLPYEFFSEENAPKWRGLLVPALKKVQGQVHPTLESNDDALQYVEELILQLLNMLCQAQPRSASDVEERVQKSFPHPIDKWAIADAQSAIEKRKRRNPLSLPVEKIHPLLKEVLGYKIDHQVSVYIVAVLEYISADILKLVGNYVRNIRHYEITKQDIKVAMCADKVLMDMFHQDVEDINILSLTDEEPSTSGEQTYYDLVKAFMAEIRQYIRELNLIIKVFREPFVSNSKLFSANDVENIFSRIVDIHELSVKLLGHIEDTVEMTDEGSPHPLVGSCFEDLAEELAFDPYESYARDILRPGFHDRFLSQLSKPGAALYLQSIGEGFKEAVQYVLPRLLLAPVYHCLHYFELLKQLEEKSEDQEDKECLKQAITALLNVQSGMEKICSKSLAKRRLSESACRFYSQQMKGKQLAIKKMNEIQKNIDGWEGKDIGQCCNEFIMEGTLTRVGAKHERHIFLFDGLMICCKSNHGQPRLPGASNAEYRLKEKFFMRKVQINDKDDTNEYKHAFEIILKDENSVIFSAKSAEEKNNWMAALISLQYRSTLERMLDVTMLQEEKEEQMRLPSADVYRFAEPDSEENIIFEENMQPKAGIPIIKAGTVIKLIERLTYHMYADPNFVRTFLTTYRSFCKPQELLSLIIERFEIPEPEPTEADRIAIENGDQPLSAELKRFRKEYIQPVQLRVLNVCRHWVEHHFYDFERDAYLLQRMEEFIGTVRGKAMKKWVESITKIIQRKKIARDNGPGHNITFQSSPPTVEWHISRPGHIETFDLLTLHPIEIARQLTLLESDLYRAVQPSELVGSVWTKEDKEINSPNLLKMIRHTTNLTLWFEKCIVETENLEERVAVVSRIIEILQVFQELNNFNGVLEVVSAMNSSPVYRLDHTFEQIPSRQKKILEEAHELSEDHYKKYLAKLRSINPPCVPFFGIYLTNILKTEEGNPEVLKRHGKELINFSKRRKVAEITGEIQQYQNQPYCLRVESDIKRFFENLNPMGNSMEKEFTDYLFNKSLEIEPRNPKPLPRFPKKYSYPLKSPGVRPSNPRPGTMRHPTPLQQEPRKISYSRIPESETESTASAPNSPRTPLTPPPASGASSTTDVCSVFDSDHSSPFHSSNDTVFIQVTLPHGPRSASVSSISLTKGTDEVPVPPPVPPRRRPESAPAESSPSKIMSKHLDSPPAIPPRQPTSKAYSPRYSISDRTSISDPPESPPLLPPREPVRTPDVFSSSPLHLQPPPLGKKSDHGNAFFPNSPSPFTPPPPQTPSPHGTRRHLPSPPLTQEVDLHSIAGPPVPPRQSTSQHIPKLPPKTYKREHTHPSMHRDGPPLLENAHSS
The test can be described thus: KRAS G12C::SOS1 protein-protein interaction (PPI) inhibition assay (HTRF). The test is classed as binding. The method, boiled down:
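Compounds, at eight 3-fold dilutions from 3 µM, were mixed with GTP-loaded Tag1-KRAS G12C, Tag2-SOS1 and a terbium-cryptate donor plus XL665 acceptor antibody pair. After 2 h at room temperature, time-resolved FRET reported the KRAS–SOS1 interaction.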

Setting [5] is: Homo sapiens, NCI-H358, 120 h, 3D spheroids, 0.002-10 µM, 5 days.
[6] abbreviates: GST-KRAS G12D, HIS-SOS1cat, compound 128 pM to 10 µM, read-out: SOS-catalyzed nucleotide exchange assay.
The mark [7] stands for this setting: 8 concentrations from 3 µM, three replicates, read-out: KRAS G12C::SOS1 PPI.
Where [8] appears, read: 3D spheroids, 0.002-10 µM, 5 days.

Consider `O=c1cc(-c2ccc(O)c(O)c2O)oc2ccccc12` [Example 2-D08, 2-D08], for which the “Synergy 2” value in test [1] (Ex. 1-2 log M -6.3, culture time 120 h) is given as “+ (less than 10%)”.
`CC(C)n1nncc1-c1cncc(-n2nc(C(=O)N[C@H](C)c3cccc(C(F)(F)F)c3F)cc(CO)c2=O)c1` [Example 6-2, N-{(1R)-1-[2-fluoro-3-(trifluoromethyl)phenyl]ethyl}-1-[5-(1-isopropyl-1H-1,2,3-triazol-5-yl)-3-pyridyl]-5-(hydroxymethyl)-6-oxo-1,6-dihydropyridazine-3-carboxamide]: the IC50 in test [2] (setting [5]) is under 1 µM; in test [3] (setting [6]) it was under 0.05 µM; in test [4] (setting [7]) it was 0.05 to 0.15 µM.
For the compound `C[C@@H](NC(=O)c1cc(CO)c(=O)n(-c2cncc(-c3cnnn3C3CC3)c2)n1)c1cccc(C(F)(F)F)c1F` [Example 6-3], the IC50 in test [2] (Homo sapiens, NCI-H358, 120 h) is under 1 µM; in test [3], under 0.05 µM; in test [4], under 0.05 µM.
With `CCn1nncc1-c1cncc(-n2nc(C(=O)N[C@H](C)c3cccc(C(F)(F)F)c3F)cc(CO)c2=O)c1` [Example 6-4, N-{ (R)-1-[2-fluoro-3-(trifluoromethyl)phenyl]ethyl}-1-[5-(1-ethyl-1H-1,2,3-triazol-5-yl)-3-pyridyl]-5-(hydroxymethyl)-6-oxo-1,6-dihydropyridazine-3-carboxamide], the IC50 was under 1 µM in test [2] (setting [5]), under 0.05 µM in test [3] (setting [6]) and 0.05 to 0.15 µM in test [4] (setting [7]).
The like results for `C[C@@H](NC(=O)c1ccc(=O)n(-c2cc(-c3cnnn3C)cnc2F)n1)c1cccc(C(F)(F)F)c1F` [Example 6-7, N-{(R)-1-[2-fluoro-3-(trifluoromethyl)phenyl]ethyl}-1-[2-fluoro-5-(1-methyl-1H-1,2,3-triazol-5-yl)-3-pyridyl]-6-oxo-1,6-dihydropyridazine-3-carboxamide] were, in that order, under 1 µM, under 0.05 µM and under 0.05 µM.
Turning to `C[C@@H](NC(=O)c1ccc(=O)n(-c2cnc(F)c(-c3cnnn3C)c2)n1)c1cccc(C(F)(F)F)c1F` [Example 6], the IC50 in test [2] (Homo sapiens, NCI-H358, 120 h) was under 1 µM; in test [3], 0.05 to 0.15 µM; in test [4], 0.05 to 0.15 µM.
For the compound `C[C@@H](NC(=O)c1cc(C2CC2)c(=O)n(-c2cncc(-c3cnnn3C)c2)c1)c1cccc(C(F)(F)F)c1F` [Example 7, (R)-3-cyclopropyl-N-(1-(2-fluoro-3-(trifluoromethyl)phenyl)ethyl)-5'-(1-methyl-1H-1,2,3-triazol-5-yl)-2-oxo-2H-[1,3'-bipyridine]-5-carboxamide], the IC50 was under 1 µM in test [2] (setting [5]), under 0.05 µM in test [3] (setting [6]) and under 0.05 µM in test [4] (setting [7]).
`[2H]C([2H])([2H])c1cc(C(=O)N[C@H](C)c2cccc(C(F)(F)F)c2F)nn(-c2cncc(-c3cnnn3C)c2)c1=O` [Example 7-1, N-{(R)-1-[2-fluoro-3-(trifluoromethyl)phenyl]ethyl}-5-[methyl-trideuterio]-1-[5-(1-methyl-1H-1,2,3-triazol-5-yl)-3-pyridyl]-6-oxo-1,6-dihydropyridazine-3-carboxamide]: the IC50 in test [2] (setting [5]) was under 1 µM; in test [3] (setting [6]), 0.05 to 0.15 µM; in test [4] (setting [7]), 0.05 to 0.15 µM.
On to `[2H]C([2H])([2H])c1cc(C(=O)N[C@H](C)c2cccc(C(F)F)c2F)nn(-c2cncc(-c3cnnn3C)c2)c1=O` [Example 7-2, N-{(R)-1-[3-(difluoromethyl)-2-fluorophenyl]ethyl}-5-[methyl-trideuterio]-1-[5-(1-methyl-1H-1,2,3-triazol-5-yl)-3-pyridyl]-6-oxo-1,6-dihydropyridazine-3-carboxamide], for which the values for the IC50 in test [2] (setting [5]), in test [3] (setting [6]) and in test [4] (setting [7]) were under 1 µM, 0.05 to 0.15 µM and under 0.05 µM, respectively.
The like results for `Cc1cc(C(=O)N[C@H](C)c2cccc(C(F)(F)F)c2F)nn(-c2cncc(-c3cnnn3C)c2)c1=O` [Example 7-3, N-{ (R)-1-[2-fluoro-3-(trifluoromethyl)phenyl]ethyl}-5-methyl-1-[5-(1-methyl-1H-1,2,3-triazol-5-yl)-3-pyridyl]-6-oxo-1,6-dihydropyridazine-3-carboxamide] were, in that order, under 1 µM, 0.05 to 0.15 µM and under 0.05 µM.
For `C[C@@H](NC(=O)c1cc(C2CC2)c(=O)n(-c2cncc(-c3cnnn3C)c2)n1)c1cccc(C(F)(F)F)c1F` [Example 7-4, N-{(R)-1-[2-fluoro-3-(trifluoromethyl)phenyl]ethyl}-5-cyclopropyl-1-[5-(1-methyl-1H-1,2,3-triazol-5-yl)-3-pyridyl]-6-oxo-1,6-dihydropyridazine-3-carboxamide], the IC50 in test [2] (setting [5]) was under 1 µM; in test [3] (setting [6]) it was under 0.05 µM; in test [4] (setting [7]), under 0.05 µM.
For the compound `C[C@@H](NC(=O)c1cc(C2=CCCCC2)c(=O)n(-c2cncc(-c3cnnn3C)c2)c1)c1cccc(C(F)(F)F)c1F` [Example 15, N-{(R)-1-[2-fluoro-3-(trifluoromethyl)phenyl]ethyl}-5-(1-cyclohexen-1-yl)-5'-(1-methyl-1H-1,2,3-triazol-5-yl)-6-oxo-1H-[1,3'-bipyridyl]-3-carboxamide], the IC50 is under 1 µM in test [2] (setting [5]), under 0.05 µM in test [3] (setting [6]) and under 0.05 µM in test [4] (setting [7]).
Regarding `CNC(=O)c1cc(Oc2ccc(NC(=O)Nc3ccc(Cl)c(C(F)(F)F)c3)cc2)ccn1` [Sorafenib, sorafenib], the “Synergy 2” value in test [1] (Ex. 1-2 log M -5.9, culture time 72 h) is given as “+ (less than 10%)”.
Consider “(R)-3-bromo-N-(1-(2-fluoro-3-(trifluoromethyl)phenyl)ethyl)-5'-(1-methyl-1H-1,2,3-triazol-5-yl)-2-oxo-2H-[1,3'-bipyridine]-5-carboxamide [Example 1-22]”, for which the figures for the IC50 in test [2] (setting [8]), in test [3] (setting [6]) and in test [4] (setting [7]) were under 1 µM, over 0.15 µM and 0.05 to 0.15 µM, respectively.
On the same counts, the results for “N-[(1R)-1-[3-(1,1-difluoro-2-hydroxy-ethyl)-2-fluoro-phenyl]ethyl]-1-[5-(2-methylpyrazol-3-yl)-3-pyridyl]-6-oxo-pyridazine-3-carboxamide [Example 1-16]” are under 1 µM, 0.05 to 0.15 µM and 0.05 to 0.15 µM.
On the same counts, the results for “N-[(1R)-1-[5-amino-3-(difluoromethyl)-2-fluoro-phenyl]ethyl]-5-methyl-1-[5-(3-methyltriazol-4-yl)-3-pyridyl]-6-oxo-pyridazine-3-carboxamide [Example 2-3]” are under 1 µM, under 0.05 µM and under 0.05 µM.
